Measurements: PubChem BioAssay (NCI)
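Following 48 hours of exposure in 96-well plates, responses at five concentrations were used to interpolate endpoints linearly. TGI is the concentration that stops growth completely.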

Key:
Test in all cases: NCI tumour cell line growth inhibition, 48 h
[1] = test system: COLO 205 colon
[2] = test system: RPMI-8226 leukemia
[3] = test system: MDA-N
[4] = test system: A549 NSCLC
[5] = test system: HCT-15 colon
[6] = test system: CAKI-1 renal
[7] = test system: HOP-92 NSCLC
[8] = test system: HCT-116 colon
[9] = test system: UACC-257 melanoma
[10] = test system: OVCAR-3 ovarian
[11] = test system: LOX IMVI melanoma
[12] = test system: SNB-75 CNS
[13] = test system: SK-MEL-2 melanoma
[14] = test system: BT-549 breast
[15] = test system: MDA-MB-435
[16] = test system: NCI-H23 lung
[17] = test system: SR leukemia
[18] = test system: K-562 leukemia
[19] = test system: HOP-62 NSCLC
[20] = test system: HL-60(TB) leukemia
[21] = test system: PC-3 prostate
[22] = test system: SN12C renal
[23] = test system: MOLT-4 leukemia
[24] = test system: CCRF-CEM leukemia
[25] = test system: UACC-62 melanoma
[26] = test system: OVCAR-4 ovarian
[27] = test system: MDA-MB-231 breast
[28] = test system: 786-0 renal
[29] = test system: HS 578T breast
[30] = test system: T-47D breast
[31] = test system: ACHN renal
[32] = test system: MALME-3M melanoma
[33] = test system: NCI-H522 lung
[34] = test system: EKVX NSCLC
[35] = test system: SK-MEL-5 melanoma
[36] = test system: SNB-19 CNS
[37] = test system: U251 CNS
[38] = test system: SF-268 CNS
[39] = test system: SW-620 colon
[40] = test system: IGROV1 ovarian
[41] = test system: KM12 colon
[42] = test system: M14 melanoma
[43] = test system: SK-OV-3 ovarian
[44] = test system: SK-MEL-28 melanoma
[45] = test system: NCI/ADR-RES ovarian
[46] = test system: HT29 colon
[47] = test system: NCI-H226 lung
[48] = test system: UO-31 renal
[49] = test system: OVCAR-8 ovarian
[50] = test system: RXF 393 renal
[51] = test system: DU-145 prostate
[52] = test system: TK-10 renal
[53] = test system: SF-295 CNS
[54] = test system: OVCAR-5 ovarian
[55] = test system: NCI-H460 lung
[56] = test system: MCF7 breast
[57] = test system: HCC-2998 colon

Oc1ccc2ccccc2c1N=Nc1ccc(Cl)cc1
TGI [1]: > 100 µM
TGI [2]: > 100 µM
TGI [3]: > 100 µM
TGI [4]: > 100 µM
TGI [5]: > 100 µM
TGI [6]: > 100 µM
TGI [7]: > 100 µM
TGI [8]: > 100 µM
TGI [9]: > 100 µM
TGI [10]: > 100 µM
TGI [11]: 78.7 µM
TGI [12]: > 100 µM
TGI [13]: > 100 µM
TGI [14]: > 100 µM
TGI [15]: > 100 µM
TGI [16]: > 100 µM
TGI [17]: > 100 µM
TGI [18]: > 100 µM
TGI [19]: > 100 µM
TGI [20]: > 100 µM
TGI [21]: > 100 µM
TGI [22]: > 100 µM
TGI [23]: > 100 µM
TGI [24]: > 100 µM
TGI [25]: > 100 µM
TGI [26]: > 100 µM
TGI [27]: > 100 µM
TGI [28]: > 100 µM
TGI [29]: > 100 µM
TGI [30]: > 100 µM
TGI [31]: > 100 µM
TGI [32]: > 100 µM
TGI [33]: > 100 µM
TGI [34]: > 100 µM
TGI [35]: > 100 µM
TGI [36]: > 100 µM
TGI [37]: > 100 µM
TGI [38]: > 100 µM
TGI [39]: > 100 µM
TGI [40]: > 100 µM
TGI [41]: > 100 µM
TGI [42]: > 100 µM
TGI [43]: > 100 µM
TGI [44]: > 100 µM
TGI [45]: > 100 µM
TGI [46]: > 100 µM
TGI [47]: > 100 µM
TGI [48]: > 100 µM
TGI [49]: > 100 µM
TGI [50]: > 100 µM
TGI [51]: > 100 µM
TGI [52]: > 100 µM
TGI [53]: > 100 µM
TGI [54]: > 100 µM

CCC(=O)N1C(=O)C(CC)(CC)C(=O)N1C(=O)CC
TGI [1]: > 100 µM
TGI [2]: > 100 µM
TGI [3]: > 100 µM
TGI [4]: > 100 µM
TGI [5]: > 100 µM
TGI [6]: > 100 µM
TGI [8]: > 100 µM
TGI [9]: > 100 µM
TGI [10]: > 100 µM
TGI [12]: > 100 µM
TGI [13]: > 100 µM
TGI [14]: > 100 µM
TGI [15]: > 100 µM
TGI [16]: > 100 µM
TGI [17]: > 100 µM
TGI [55]: > 100 µM
TGI [18]: > 100 µM
TGI [19]: > 100 µM
TGI [20]: > 100 µM
TGI [21]: > 100 µM
TGI [22]: > 100 µM
TGI [23]: > 100 µM
TGI [24]: > 100 µM
TGI [56]: > 100 µM
TGI [25]: > 100 µM
TGI [26]: > 100 µM
TGI [27]: > 100 µM
TGI [28]: > 100 µM
TGI [29]: > 100 µM
TGI [30]: > 100 µM
TGI [31]: > 100 µM
TGI [32]: > 100 µM
TGI [33]: > 100 µM
TGI [34]: > 100 µM
TGI [35]: > 100 µM
TGI [36]: > 100 µM
TGI [37]: > 100 µM
TGI [38]: > 100 µM
TGI [39]: > 100 µM
TGI [40]: > 100 µM
TGI [41]: > 100 µM
TGI [57]: > 100 µM
TGI [42]: > 100 µM
TGI [43]: > 100 µM
TGI [44]: > 100 µM
TGI [45]: > 100 µM
TGI [46]: > 100 µM
TGI [47]: > 100 µM
TGI [48]: > 100 µM
TGI [49]: > 100 µM
TGI [50]: > 100 µM
TGI [51]: > 100 µM
TGI [52]: > 100 µM
TGI [53]: > 100 µM
TGI [54]: > 100 µM
